According to US10807982B2, “Bromodomain inhibitors” (CELGENE QUANTICEL RESEARCH, INC., priority 2015, dated 2020):

Experiments:
BRD4(BD1) = BRD4(BD1) (Homo sapiens (Human), UniProt O60885); assay: In vitro enzyme inhibition assay (BRD4 AlphaScreen, H4-tetraacetyl peptide); format: binding; conditions: BRD4(BD1) 2 nM, peptide 15 nM
Procedure: Determination of the IC50 for the heterocyclic derivative BRD4 inhibitors disclosed herein was performed as follows. His-tagged […] was cloned, expressed and purified to homogeneity. Filipakopoulos et al., 468 Nature 1067 (2010). BRD4 binding and inhibition was assessed by monitoring the interaction of biotinylated H4-tetraacetyl peptide (AnaSpec, H4K5/8/12/16(Ac), biotin—labeled) with the target using the AlphaScreen technology (Life Technologies). In a 384-well ProxiPlate BRD4(BD1) (2 nM final) was combined with peptide (15 nM final) in 50 mM HEPES (pH 7.3), 10 mM NaCl, 0.25 mM TCEP, 0.1% (w/v) BSA, and 0.005% (w/v) Brij-35 either in the presence of DMSO (final 0.4% DMSO) or compound dilution series in DMSO. After 20 min incubation at RT, Alpha streptavidin donor beads and Nickel Chelate acceptor beads were added to a final concentration of 5 μg/mL. After 2 hr of equilibration, plates were read on an Envision instrument and the IC50 was calculated using a four parameter non-linear curve fit.
The ability of the compounds disclosed herein to inhibit BRD4 activity was quantified and the respective IC50 value was determined.

[1] = test system: HL-60, human proleukemia cells; assay: Cell-MTS cellular proliferation assay, HL-60; format: cell-based; conditions: HL-60 cells, 168 hr incubation
Procedure: (§1) A colorimetric cellular proliferation assay (Cell-MTS assay) was performed to assess the ability of the heterocyclic derivative […] inhibitors disclosed herein to effect the proliferation of established cancer cell lines.
(§2) The Cell-MTS assay is a 7-day plate-based colorimetric assay which quantifies the amount of newly generated NADH in the presence or absence of test compound. The NADH level is used for the quantification of cancer cell proliferation.
(§3) Established cancer cell lines with a variety of driving mutations were obtained from American Type Culture Collection (ATCC) and routinely passaged according to ATCC protocols. For routine assay, these cells were seeded at densities which enabled ˜90% confluence after 7 days of culture. Raji, human Burkitts lymphoma cells, (cMYC) were seeded at 15,000 cells per 96-well. HL-60, human proleukemia cells, (NRAS, p16, p53, c-Myc amplified) were seeded at 5,000 cells per 96-well. NCI-H460, human non-small cell lung cancer cells. (KRAS, PIK3CA, STLK11, p16) were seeded at 3,000 cells per 96-well. 24 hr after plating, cells received an 11 point dilution of test compound with final concentration ranges from 100 µM to 2.0 nM. Cells were incubated in the presence of compound for 168 hr at 37° C., and 5% CO2. At the end of this incubation period, 80 µL of media is removed and 20 µL of CellTiter 96® AQueous Non-Radioactive Cell Proliferation Assay solution (Promega) was added. The cells were incubated until the OD490 was >0.6. IC50 values were calculated using the IDBS XLfit software package and include background subtracted OD490 values and normalization to DMSO controls. Cellular proliferation IC50 values were uploaded and archived using the Chem Biography Platform. Table 3 provides the results of the in vitro enzyme inhibition assay experiments and the in vitro cell-based assay experiments performed with the compounds disclosed herein: […]

[2] = test system: Raji, human Burkitts lymphoma cells; assay: Cell-MTS cellular proliferation assay, Raji; format: cell-based; conditions: 168 hr incubation
Procedure: as §1, §2, §3

[3] = test system: NCI-H460, human non-small cell lung cancer cells; assay: Cell-MTS cellular proliferation assay, NCI-H460; format: cell-based; conditions: 168 hr incubation
Procedure: as §1, §2, §3

IC50 (BRD4(BD1)) [nM]	Compound	other results
≤ 500	CCS(=O)(=O)c1cc(-c2cc(C)c(=O)n(C)c2)cc2c1nc(C)n2CC1CC1 [Example 69, 5-[3-(cyclopropylmethyl)-7-ethylsulfonyl-2-methylbenzimidazol-5-yl]-1,3-dimethylpyridin-2-one]	
≤ 500	Cc1cc(-c2cc(S(C)(=O)=O)cc3cc(-c4ccccc4)oc23)cn(C)c1=O [Example 25, 1,3-dimethyl-5-(5-methylsulfonyl-2-phenyl-1-benzofuran-7-yl)pyridin-2-one]	
≤ 500	CCc1cc2cc(S(C)(=O)=O)cc(-c3cn(C)c(=O)c4ccccc34)c2o1 [4-(2-ethyl-5-(methylsulfonyl)benzofuran-7-yl)-2-methylisoquinolin-1(2H)-one, reference compound]	IC50 ([1]; Homo sapiens): ≤ 500 nM; IC50 ([2]; Homo sapiens): ≤ 500 nM; IC50 ([3]; Homo sapiens): 500 to 5000 nM
≤ 500	COC[C@@H](C)n1c(C)nc2c(NS(C)(=O)=O)cc(-c3cc(C)c(=O)n(C)c3)cc21 [Example 46, N-[6-(1,5-dimethyl-6-oxopyridin-3-yl)-1-[(2R)-1-methoxypropan-2-yl]-2-methylbenzimidazol-4-yl]methanesulfonamide]	IC50 ([1]; Homo sapiens): ≤ 500 nM; IC50 ([2]; Homo sapiens): ≤ 500 nM; IC50 ([3]; Homo sapiens): > 5000 nM
≤ 500	Cc1cc(-c2cc3c(cc2OCC2CC2)CCN3S(C)(=O)=O)cn(C)c1=O [Example 15, 5-[5-(cyclopropylmethoxy)-1-methylsulfonyl-2,3-dihydroindol-6-yl]-1,3-dimethylpyridin-2-one]	IC50 ([1]; Homo sapiens): ≤ 500 nM; IC50 ([2]; Homo sapiens): ≤ 500 nM; IC50 ([3]; Homo sapiens): > 5000 nM
≤ 500	Cc1cc(-c2cc(S(C)(=O)=O)c3nc(C)n(Cc4ccccc4)c3c2)cn(C)c1=O [Example 67, 5-(3-benzyl-2-methyl-7-methylsulfonylbenzimidazol-5-yl)-1,3-dimethylpyridin-2-one]	IC50 ([1]; Homo sapiens): ≤ 500 nM; IC50 ([2]; Homo sapiens): ≤ 500 nM; IC50 ([3]; Homo sapiens): > 5000 nM
≤ 500	CCCCn1cnc2c(NS(=O)(=O)CC)cc(-c3cc(C)c(=O)n(C)c3)cc21 [Example 40, N-[1-butyl-6-(1,5-dimethyl-6-oxopyridin-3-yl)benzimidazol-4-yl]ethanesulfonamide]	IC50 ([1]; Homo sapiens): ≤ 500 nM; IC50 ([2]; Homo sapiens): ≤ 500 nM; IC50 ([3]; Homo sapiens): > 5000 nM
≤ 500	CCc1nc2c(NS(C)(=O)=O)cc(-c3cc(C)c(=O)n(C)c3)cc2n1CC1CC1 [Example 74, N-[1-(cyclopropylmethyl)-6-(1,5-dimethyl-6-oxopyridin-3-yl)-2-ethylbenzimidazol-4-yl]methanesulfonamide]	
≤ 500	Cc1cc(-c2nc(NS(C)(=O)=O)c3nc(C)n(CC4CC4)c3n2)cn(C)c1=O [Example 81, N-[9-(cyclopropylmethyl)-2-(1,5-dimethyl-6-oxopyridin-3-yl)-8-methylpurin-6-yl]methanesulfonamide]	
≤ 500	CCS(=O)(=O)Nc1cc(-c2cc(C)c(=O)n(C)c2)c2nc(C3CC3)n(C)c2c1 [Example 54, N-[2-cyclopropyl-7-(1,5-dimethyl-6-oxopyridin-3-yl)-3-methylbenzimidazol-5-yl]ethanesulfonamide]	
≤ 500	CCS(=O)(=O)c1cc(-c2cc(OC)c(=O)n(C)c2)cc2c1nc(C)n2CC1CC1 [Example 70, 5-[3-(cyclopropylmethyl)-7-ethylsulfonyl-2-methylbenzimidazol-5-yl]-3-methoxy-1-methylpyridin-2-one]	
≤ 500	Cc1cc(-c2cc3c(S(C)(=O)=O)cccc3n2CCC2CC2)cn(C)c1=O [Example 77, 5-[1-(2-cyclopropylethyl)-4-methylsulfonylindol-2-yl]-1,3-dimethylpyridin-2-one]	
≤ 500	CCn1c(-c2cc(C)c(=O)n(C)c2)cc2c(S(C)(=O)=O)cccc21 [Example 75, 5-(1-ethyl-4-methylsulfonylindol-2-yl)-1,3-dimethylpyridin-2-one]	
≤ 500	CCS(=O)(=O)Nc1cc(-c2cc(C)c(=O)n(C)c2)cc2c1c(F)nn2Cc1ccccc1 [Example 106, N-[1-benzyl-6-(1,5-dimethyl-6-oxopyridin-3-yl)-3-fluoroindazol-4-yl]ethanesulfonamide]	
	Cc1cc(-c2cc(NS(C)(=O)=O)c3nc(C)n([C@H](C)c4ccccc4)c3c2)cn(C)c1=O [Example 45, N-[6-(1,5-dimethyl-6-oxopyridin-3-yl)-2-methyl-1-[(1R)-(1-phenylethyl)]benzimidazol-4-yl]methanesulfonamide]	IC50 [1]: ≤ 500 nM; IC50 [2]: ≤ 500 nM; IC50 [3]: 500 to 5000 nM
≤ 500	CCS(=O)(=O)Nc1cc(-c2cn(C)c(=O)c3ccccc23)c2nc(C3CC3)n(C)c2c1 [Example 55, N-[2-cyclopropyl-3-methyl-7-(2-methyl-1-oxoisoquinolin-4-yl)benzimidazol-5-yl]ethanesulfonamide]	
≤ 500	CN1Cc2cc(Oc3ccc(F)cc3F)c(-c3ccc(=O)n(C)c3)cc2S1(=O)=O [Example 12, 5-[5-(2,4-difluorophenoxy)-2-methyl-1,1-dioxo-3H-1,2-benzothiazol-6-yl]-1-methylpyridin-2-one]	
≤ 500	CCc1cc2cc(S(C)(=O)=O)cc(-c3cc(C)c(=O)n(C)c3)c2o1 [Example 21, 5-(2-ethyl-5-methylsulfonyl-1-benzofuran-7-yl)-1,3-dimethylpyridin-2-one]	
≤ 500	Cn1cc(-c2cc3c(S(C)(=O)=O)cccc3n2CC2CC2)c2ccccc2c1=O [Example 78, 4-[1-(cyclopropylmethyl)-4-methylsulfonylindol-2-yl]-2-methylisoquinolin-1-one]	
≤ 500	Cc1cc(-c2cc(S(C)(=O)=O)ccc2OCC2CC2)c2n(c1=O)CCC2F (racemic) [Example 90, (±)-8-[2-(cyclopropylmethoxy)-5-methylsulfonylphenyl]-1-fluoro-6-methyl-2,3-dihydro-1H-indolizin-5-one]	
≤ 500	Cc1cc(-c2cc3c(S(C)(=O)=O)cccc3n2CC2CC2)cn(C)c1=O [Example 76, 5-[1-(cyclopropylmethyl)-4-methylsulfonylindol-2-yl]-1,3-dimethylpyridin-2-one]	
≤ 500	CCS(=O)(=O)Nc1cc(-c2cc(C)c(=O)n(C)c2)cc2c1c(F)nn2Cc1ccc(F)cc1 [Example 105, N-[6-(1,5-dimethyl-6-oxopyridin-3-yl)-3-fluoro-1-[(4-fluorophenyl)methyl]indazol-4-yl]ethanesulfonamide]	
≤ 500	Cc1cc(-c2nc(NS(C)(=O)=O)c3nc(C)n(Cc4ccc(F)cc4)c3n2)cn(C)c1=O [Example 22, N-[2-(1,5-dimethyl-6-oxopyridin-3-yl)-9-[(4-fluorophenyl)methyl]-8-methylpurin-6-yl]methanesulfonamide]	
≤ 500	CCS(=O)(=O)Nc1cc(-c2cc(C)c(=O)n(C)c2)cc2c1nc(OC)n2CC1CC1 [Example 103, N-[1-(cyclopropylmethyl)-6-(1,5-dimethyl-6-oxopyridin-3-yl)-2-methoxybenzimidazol-4-yl]ethanesulfonamide]	
500 to 5000	Cc1cc(-c2cc(S(C)(=O)=O)ccc2OCC2CC2)c2n(c1=O)CCC2(F)F [Example 89, 8-[2-(cyclopropylmethoxy)-5-methylsulfonylphenyl]-1,1-difluoro-6-methyl-2,3-dihydroindolizin-5-one]	
≤ 500	COc1cc(-c2cc(CS(C)(=O)=O)cc3nc(C4CC4)oc23)cn(C)c1=O [Example 63, 5-[2-cyclopropyl-5-(methylsulfonylmethyl)-1,3-benzoxazol-7-yl]-3-methoxy-1-methylpyridin-2-one]	
≤ 500	Cc1cc(-c2cc(NS(C)(=O)=O)c3c(F)nn(Cc4ccccc4)c3c2)cn(C)c1=O [Example 104, N-[1-benzyl-6-(1,5-dimethyl-6-oxopyridin-3-yl)-3-fluoroindazol-4-yl]methanesulfonamide]	
